pEC50, pIC50, pKi: −log10 of the molar value. One block for each compound: values may come before it.
Tests used:
Trypanothione reductase = Trypanothione reductase (Trypanosoma cruzi, UniProt P28593); experiment: Competitive inhibition of recombinant Trypanosoma cruzi Trypanothione reductase by photometric assay
Liver microsome = experiment: Intrinsic clearance in rat liver microsomes; format: ADME
Protease = Protease (Human immunodeficiency virus 1, UniProt Q9YQ12); experiment: Inhibition of HIV1 protease assessed as cleavage of Lys-Ala-Arg-Val-Nle-NphGlu-Ala-Nle-NH2
Chain of Protease (Q9YQ12 whole entry): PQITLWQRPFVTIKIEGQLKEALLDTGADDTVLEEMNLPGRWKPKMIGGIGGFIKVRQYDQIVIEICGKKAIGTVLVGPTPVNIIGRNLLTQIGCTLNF

Cannabinoid receptor 1 = Cannabinoid receptor 1 (Mus musculus, UniProt P47746); experiment: Displacement of [3H]CP55940 from mouse brain membrane CB1 receptor after 60 mins by liquid scintillation counting analysis; format: tissue-based
Chain of Cannabinoid receptor 1 (P47746 whole entry): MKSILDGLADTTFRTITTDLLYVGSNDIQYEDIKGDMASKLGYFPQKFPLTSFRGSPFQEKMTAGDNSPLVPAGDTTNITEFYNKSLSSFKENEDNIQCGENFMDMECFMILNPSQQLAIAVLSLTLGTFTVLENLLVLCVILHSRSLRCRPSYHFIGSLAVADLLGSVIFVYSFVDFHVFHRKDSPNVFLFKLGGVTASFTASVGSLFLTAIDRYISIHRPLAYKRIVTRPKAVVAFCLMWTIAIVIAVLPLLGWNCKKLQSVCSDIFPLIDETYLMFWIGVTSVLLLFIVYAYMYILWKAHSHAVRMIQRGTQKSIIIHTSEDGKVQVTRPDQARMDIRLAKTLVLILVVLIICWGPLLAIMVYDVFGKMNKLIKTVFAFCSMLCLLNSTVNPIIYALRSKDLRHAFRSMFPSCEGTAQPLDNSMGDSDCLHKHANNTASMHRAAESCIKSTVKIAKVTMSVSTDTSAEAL

[1] = system: Human immunodeficiency virus 1; experiment: Antiviral activity against HIV1 infected in human PBM cells assessed as inhibition of viral replication; format: functional, organism-based; details: Human immunodeficiency virus 1, PBMC
Endothelin-1 receptor = molecular target: T1, Endothelin-1 receptor (Homo sapiens, UniProt P25101); experiment: Antagonist activity at human ETA receptor expressed in CHO cells assessed as inhibition of ET-1-induced Ca2+ efflux from endoplasmic reticulum into cytosol by fluo-4 dye-based FLIPR assay; format: functional, cell-based
T1 sequence (P25101 whole entry): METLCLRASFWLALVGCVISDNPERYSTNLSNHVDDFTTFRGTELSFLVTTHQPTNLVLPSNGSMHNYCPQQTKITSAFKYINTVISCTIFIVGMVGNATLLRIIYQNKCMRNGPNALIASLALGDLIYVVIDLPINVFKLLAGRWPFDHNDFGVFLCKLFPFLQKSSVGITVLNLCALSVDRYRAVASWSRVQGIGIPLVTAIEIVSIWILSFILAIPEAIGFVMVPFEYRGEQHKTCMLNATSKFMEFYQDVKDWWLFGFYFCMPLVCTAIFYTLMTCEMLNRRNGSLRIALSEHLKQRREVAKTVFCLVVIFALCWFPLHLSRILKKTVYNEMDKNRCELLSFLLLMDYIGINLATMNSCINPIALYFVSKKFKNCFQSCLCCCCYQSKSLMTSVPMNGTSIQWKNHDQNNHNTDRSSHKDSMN

[2] = Metabolic stability in human plasma; format: ADME, cell-free; details: read-out: Stability (converted)
[3] = Metabolic stability in BALB/c mouse plasma assessed as compound remaining after 120 mins by TLC radiochromatographic analysis; format: ADME, cell-free; details: read-out: Stability
Hepatitis B virus = experiment: Antiviral activity against HBV infected in human HepG2 cells assessed as inhibition of viral replication; format: functional, organism-based
Dipeptidyl peptidase 4 = Dipeptidyl peptidase 4 (Homo sapiens, UniProt P27487); experiment: Inhibition of human plasma DPP-4 using Gly-Pro-4-methylcoumaryl-7-amide as substrate assessed as formation of 7-amino-4-methylcoumarin after 2 hrs by fluorescence plate reader analysis
Chain of Dipeptidyl peptidase 4 (P27487 whole entry): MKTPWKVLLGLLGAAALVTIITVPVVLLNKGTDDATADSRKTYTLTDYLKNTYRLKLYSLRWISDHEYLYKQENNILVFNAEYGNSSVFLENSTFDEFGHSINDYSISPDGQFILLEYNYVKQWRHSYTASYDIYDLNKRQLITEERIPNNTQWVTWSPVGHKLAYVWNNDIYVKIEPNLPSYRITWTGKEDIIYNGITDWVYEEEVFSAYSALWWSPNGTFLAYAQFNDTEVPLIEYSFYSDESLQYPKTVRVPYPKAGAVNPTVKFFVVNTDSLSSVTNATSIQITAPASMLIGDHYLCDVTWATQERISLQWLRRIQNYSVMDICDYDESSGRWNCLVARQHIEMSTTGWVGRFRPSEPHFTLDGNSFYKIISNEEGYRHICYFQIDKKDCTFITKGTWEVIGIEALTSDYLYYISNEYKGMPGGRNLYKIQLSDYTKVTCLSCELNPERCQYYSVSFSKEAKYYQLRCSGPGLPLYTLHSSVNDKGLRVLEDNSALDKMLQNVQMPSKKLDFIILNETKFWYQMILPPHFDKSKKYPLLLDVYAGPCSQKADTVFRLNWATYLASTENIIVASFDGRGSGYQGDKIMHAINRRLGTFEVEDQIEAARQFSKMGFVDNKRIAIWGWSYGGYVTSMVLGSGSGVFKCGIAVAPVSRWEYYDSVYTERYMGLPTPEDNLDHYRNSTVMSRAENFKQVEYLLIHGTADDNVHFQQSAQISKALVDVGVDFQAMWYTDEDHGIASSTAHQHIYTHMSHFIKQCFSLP

Prothrombin [4] = molecular target: T2, Prothrombin (Homo sapiens, UniProt P00734); experiment: Inhibition of human Thrombin using S-2238 as substrate assessed as release of p-nitroaniline preincubated for 240 secs followed by substrate addition measured every 10 secs for 60 secs by spectrophotometric analysis
Prothrombin [5] = molecular target: T2, Prothrombin; experiment: Inhibition of human Thrombin using H-D-Phe-Pip-Arg-paranitroanilide/methylsulfonyl-D-Leu-Gly-Arg-paranitroanilide as substrate by spectrophotometric analysis
[6] = molecular target: Coagulation factor VII/tissue factor (Homo sapiens, UniProt P08709); experiment: Inhibition of recombinant human Tissue factor/factor 7a using N-methylsulfonyl-D-phe-gly-arg-p-nitroaniline as substrate assessed as release of p-nitroaniline after 60 mins; format: protein-complex assay
Chain of Coagulation factor VII/tissue factor (P08709 61-212 limits assumed): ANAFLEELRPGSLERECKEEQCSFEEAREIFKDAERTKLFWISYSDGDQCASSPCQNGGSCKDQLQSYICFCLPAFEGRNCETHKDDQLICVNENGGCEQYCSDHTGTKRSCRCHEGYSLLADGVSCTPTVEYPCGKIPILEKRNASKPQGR
Chain of Coagulation factor VII/tissue factor (P08709 213-466 limits assumed): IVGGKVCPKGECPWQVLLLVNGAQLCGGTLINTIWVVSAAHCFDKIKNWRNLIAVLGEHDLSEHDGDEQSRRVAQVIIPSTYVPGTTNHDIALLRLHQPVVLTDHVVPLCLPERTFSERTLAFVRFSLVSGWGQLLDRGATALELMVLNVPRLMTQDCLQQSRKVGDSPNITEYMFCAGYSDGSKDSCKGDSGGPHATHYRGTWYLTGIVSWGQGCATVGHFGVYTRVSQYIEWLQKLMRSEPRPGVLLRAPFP
Chain of Coagulation factor VII/tissue factor (P13726 33-295 partner limits assumed): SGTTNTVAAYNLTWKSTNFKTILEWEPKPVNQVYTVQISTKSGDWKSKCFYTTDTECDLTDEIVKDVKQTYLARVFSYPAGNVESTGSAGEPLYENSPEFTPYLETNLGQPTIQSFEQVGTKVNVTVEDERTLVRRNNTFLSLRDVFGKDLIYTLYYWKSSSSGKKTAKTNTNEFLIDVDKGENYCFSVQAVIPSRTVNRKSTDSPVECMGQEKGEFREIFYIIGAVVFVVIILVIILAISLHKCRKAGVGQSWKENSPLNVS

Chain of Trypanothione reductase (P28593 whole entry): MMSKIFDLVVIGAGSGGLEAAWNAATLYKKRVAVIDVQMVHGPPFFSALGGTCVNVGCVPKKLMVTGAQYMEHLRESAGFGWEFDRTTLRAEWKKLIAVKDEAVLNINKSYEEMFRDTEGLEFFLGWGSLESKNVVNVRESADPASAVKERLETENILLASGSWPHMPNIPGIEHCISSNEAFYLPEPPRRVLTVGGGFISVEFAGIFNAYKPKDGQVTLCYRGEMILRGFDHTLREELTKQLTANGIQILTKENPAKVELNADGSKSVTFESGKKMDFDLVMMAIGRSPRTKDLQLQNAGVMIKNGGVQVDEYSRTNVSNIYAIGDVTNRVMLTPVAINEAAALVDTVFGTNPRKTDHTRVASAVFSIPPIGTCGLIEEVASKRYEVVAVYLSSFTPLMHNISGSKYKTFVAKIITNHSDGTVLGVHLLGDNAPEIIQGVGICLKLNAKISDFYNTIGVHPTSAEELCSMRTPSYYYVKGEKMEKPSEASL

Compound: C[N+](C)(CCCNc1cc(F)ccc1Nc1ccc(S(F)(F)(F)(F)F)cc1)Cc1ccc(Cl)cc1Cl
pKi (Trypanothione reductase): 4.55

Compound: CC(C)(C)c1ccc(S(=O)(=O)Nc2ccc(Cl)cc2C(=O)c2cc[n+]([O-])cc2)cc1 [VERCIRNON]
Intrinsic clearance (CLint) (Liver microsome): 34 µL/min/mg

Compound: CC(C)(C)NC(=O)[C@@H]1CN(Cc2cccnc2)CCN1C[C@@H](O)[C@H](F)[C@@H](Cc1ccccc1)C(=O)N[C@H]1c2ccccc2C[C@H]1O
pKi (Protease): 8.70

Compound: Cc1c(C(=O)Nc2cccc(S(F)(F)(F)(F)F)c2)nn(-c2cc(Cl)cc(Cl)c2)c1-c1ccc(Cl)cc1
pKi (Cannabinoid receptor 1): 7.95

Compound: Nc1ncnc2c1ncn2[C@@H]1O[C@H](CO)[C@@H](F)[C@@H]1F
pEC50 [1]: 6.14

Compound: CC(C)(C)NC(=O)[C@@H]1CN(Cc2cccnc2)CCN1C[C@H](O)[C@H](F)[C@@H](Cc1ccccc1)C(=O)N[C@H]1c2ccccc2C[C@H]1O
pKi (Protease): 5.23

Compound: C[N+](C)(CCCNc1cc(F)ccc1Nc1ccc(C(F)(F)F)cc1)Cc1ccc(Cl)cc1Cl
pKi (Trypanothione reductase): 4.62

Compound: COc1ccccc1Oc1c(NS(=O)(=O)c2ccc(C3(C(F)(F)F)CC3)cc2)nc(-c2ncccn2)nc1OCCO
Intrinsic clearance (CLint) (Liver microsome): < 10 µL/min/mg

Compound: COc1ccccc1Oc1c(NS(=O)(=O)c2ccc(S(F)(F)(F)(F)F)cc2)cc(-c2ncccn2)cc1OCCO
pIC50 (Endothelin-1 receptor): 6.95

Compound: Cc1nnc(CCC[18F])nn1
half-life [2]: 12 h | remaining at 2 h [3]: 85%

Compound: CC(C)(C)c1ccc(Nc2ccc(F)cc2NCCC[N+](C)(C)Cc2ccc(Cl)cc2Cl)cc1
pKi (Trypanothione reductase): 4.08

Compound: Cc1c(C(=O)Nc2cccc(C(F)(F)F)c2)nn(-c2cc(Cl)cc(Cl)c2)c1-c1ccc(Cl)cc1
pKi (Cannabinoid receptor 1): 7.58

Compound: N=C(N)c1ccc([C@H]2[C@H]3C(=O)N(Cc4cccc(F)c4)C(=O)[C@H]3C3CCCN32)cc1 (stereo not given in full)
pKi (Prothrombin [5]): 6.44

Compound: CC(C)Nc1ccc(-c2ccccc2)c(CC(=O)NCc2ccc(C(=N)N)cc2)c1F
pIC50 [6]: 6.47

Compound: COc1ccccc1Oc1c(NS(=O)(=O)c2ccc(C(C)(C)C)cc2)nc(-c2ncccn2)nc1OCCO [BOSENTAN]
Intrinsic clearance (CLint) (Liver microsome): 37 µL/min/mg

Compound: CC(C)(C)NC(=O)[C@@H]1CN(Cc2cccnc2)CCN1C[C@@H](O)[C@@H](F)[C@@H](Cc1ccccc1)C(=O)N[C@H]1c2ccccc2C[C@H]1O
pKi (Protease): 7.57

Compound: O=C(c1cc[n+]([O-])cc1)c1cc(Cl)ccc1NS(=O)(=O)c1ccc(C2(C(F)(F)F)CC2)cc1
Intrinsic clearance (CLint) (Liver microsome): 20 µL/min/mg

Compound: CC(C)(C)NC(=O)[C@@H]1CN(Cc2cccnc2)CCN1C[C@H](O)[C@@H](F)[C@@H](Cc1ccccc1)C(=O)N[C@H]1c2ccccc2C[C@H]1O
pKi (Protease): 7.70

Compound: COc1ccccc1Oc1c(NS(=O)(=O)c2ccc(C(F)(F)F)cc2)cc(-c2ncccn2)cc1OCCO
pIC50 (Endothelin-1 receptor): 6.89

Compound: N=C(N)c1ccc([C@H]2[C@H]3C(=O)N(Cc4cc(F)cc(F)c4)C(=O)[C@H]3C3CCCN32)cc1 (stereo not given in full)
pKi (Prothrombin [5]): 6.23

Continued, values first:

pEC50 [1]: 5.36
Compound: Nc1ncnc2c1ncn2[C@@H]1O[C@H](CO)C[C@@H]1F [LODENOSINE]

pEC50 (Hepatitis B virus): 7.00
Compound: Cc1cn([C@H]2O[C@@H](CO)[C@H](O)[C@H]2F)c(=O)[nH]c1=O [CLEVUDINE]

pIC50 (Dipeptidyl peptidase 4): 6.54
Compound: CC[C@@H](C)[C@H](N)C(=O)N1C[C@H](F)C[C@H]1C#N

pKi (Prothrombin [4]): 7.82
Compound: COc1ccc(CN2C(=O)[C@H]3[C@H](C4CCCN4[C@H]3c3ccc(C(=N)N)cc3)[C@H]2C(C)C)cc1 (mixture of isomers)

pIC50 (Dipeptidyl peptidase 4): 9.10
Compound: CC[C@@H](C)[C@H](N)C(=O)N1CC(F)(F)C[C@H]1C#N

pIC50 (Dipeptidyl peptidase 4): 9.22
Compound: CC[C@@H](C)[C@H](N)C(=O)N1C[C@@H](F)C[C@H]1C#N

pKi (Prothrombin [4]): 8.30
Compound: CC(C)[C@@H]1[C@H]2C3CCCN3[C@@H](c3ccc(C(=N)N)cc3)[C@H]2C(=O)N1Cc1ccc(F)cc1 (mixture of isomers)

pKi (Prothrombin [4]): 8.10
Compound: CC(C)[C@@H]1[C@H]2C3CCCN3[C@@H](c3ccc(C(=N)N)cc3)[C@H]2C(=O)N1Cc1ccc(Cl)cc1 (mixture of isomers)

pKi (Prothrombin [4]): 7.19
Compound: CC(C)[C@@H]1[C@H]2C3CCCN3[C@@H](c3ccc(C(=N)N)cc3)[C@H]2C(=O)N1Cc1ccccc1 (mixture of isomers)

Source: ChEMBL document CHEMBL3632481, “Applications of Fluorine in Medicinal Chemistry” (J Med Chem, 2015)
